Test system: uterine gene expression
Experiment: Gene expression profiling (HGU133A) in the uterus of ovariectomized monkeys treated with estradiol, tamoxifen or raloxifene
Assay type: in vivo, cynomolgus monkeys (Macaca fascicularis)

O=C(c1ccc(OCCN2CCCCC2)cc1)c1c(-c2ccc(O)cc2)sc2cc(O)ccc12 [raloxifene]
Uterine expression increase: insulin-like GF binding protein 2 and insulin-like GF 1 (compared with OVX controls): approximately 2 fold
Effect on transporter, redox, and cell cycle genes in the uterus (relative to estradiol) (cynomolgus monkey, in vivo): little or no effect
Uterine expression changes: IGFBP 5, latent TGF beta binding protein 1, cysteine-rich angiogenic inducer 61 (cynomolgus monkey, in vivo): only modest changes
Uterine expression of the remaining signal transduction genes examined (tamoxifen: except for LDL receptor adaptor protein): downregulated
Fold change relative to OVX: ATPase, H+ transporting, lysosomal 38 kda, V0 subunit d isoform 1 (uterus, OVX monkeys): 1.1 fold
Fold change relative to OVX: ATPase, Na+/K+ transporting, beta 3 polypeptide (uterus, OVX monkeys): 0.9 fold
Fold change relative to OVX: Biglycan (uterus, OVX monkeys): 2.4 fold
Fold change relative to OVX: CDC28 protein kinase regulatory subunit 2 (uterus, OVX monkeys): 0.8 fold
Fold change relative to OVX: Cadherin 11, type 2, OB-cadherin (osteoblast) (uterus, OVX monkeys): 1.3 fold
Fold change relative to OVX: Calcium channel, voltage-dependent, beta 2 subunit (uterus, OVX monkeys): 0.8 fold
Fold change relative to OVX: Catenin (cadherin-associated protein), alpha-like 1 (uterus, OVX monkeys): 0.8 fold
Fold change relative to OVX: Chitinase 3-like 1 (cartilage glycoprotein-39) (uterus, OVX monkeys): 1.1 fold
Fold change relative to OVX: Chloride intracellular channel 4 (uterus, OVX monkeys): 1.4 fold
Fold change relative to OVX: Chondroitin sulfate proteoglycan 2 (versican) (uterus, OVX monkeys): 1.4 fold
Fold change relative to OVX: Collagen, type I, alpha 1 (uterus, OVX monkeys): 1.8 fold
Fold change relative to OVX: Collagen, type IV, alpha 2 (uterus, OVX monkeys): 1.4 fold
Fold change relative to OVX: Collagen, type V, alpha 1 (uterus, OVX monkeys): 1.2 fold
Fold change relative to OVX: Collagen, type VI, alpha 3 (uterus, OVX monkeys): 1.2 fold
Fold change relative to OVX: Collagen, type VIII, alpha 2 (uterus, OVX monkeys): 1.9 fold
Fold change relative to OVX: Cyclin D1 (PRAD1: parathyroid adenomatosis 1) (uterus, OVX monkeys): 1.2 fold
Fold change relative to OVX: Cysteine-rich, angiogenic inducer, 61 (uterus, OVX monkeys): 1.7 fold
Fold change relative to OVX: Cytochrome c oxidase subunit via polypeptide 1 (uterus, OVX monkeys): 1.0 fold
Fold change relative to OVX: Cytochrome c oxidase subunit viia polypeptide 2 (liver) (uterus, OVX monkeys): 1.1 fold
Fold change relative to OVX: Dermatopontin (uterus, OVX monkeys): 1.5 fold
Fold change relative to OVX: Dishevelled associated activator of morphogenesis 1 (uterus, OVX monkeys): 0.9 fold
Fold change relative to OVX: Fibroblast growth factor 2 (basic) (uterus, OVX monkeys): 2.0 fold
Fold change relative to OVX: Fibulin 1 (uterus, OVX monkeys): 1.4 fold
Fold change relative to OVX: Four and a half LIM domains 2 (uterus, OVX monkeys): 0.9 fold
Fold change relative to OVX: G1 to S phase transition 1 (uterus, OVX monkeys): 0.9 fold
Fold change relative to OVX: Growth associated protein 43 (uterus, OVX monkeys): 1.7 fold
Fold change relative to OVX: H2A histone family, member Y (uterus, OVX monkeys): 1.0 fold
Fold change relative to OVX: Heparan sulfate proteoglycan 2 (perlecan) (uterus, OVX monkeys): 1.2 fold
Fold change relative to OVX: Histone H2A.F/Z variant (uterus, OVX monkeys): 1.0 fold
Fold change relative to OVX: Insulin-like growth factor binding protein 2, 36 kda (uterus, OVX monkeys): 1.1 fold
Fold change relative to OVX: Insulin-like growth factor binding protein 5 (uterus, OVX monkeys): 2.0 fold
Fold change relative to OVX: Integrin, beta 5 (uterus, OVX monkeys): 1.5 fold
Fold change relative to OVX: Intercrine-alpha, mrna sequence (uterus, OVX monkeys): 1.3 fold
Fold change relative to OVX: LDL receptor adaptor protein (uterus, OVX monkeys): 1.0 fold
Fold change relative to OVX: LIM and senescent cell antigen-like domains 1 (uterus, OVX monkeys): 2.2 fold
Fold change relative to OVX: Laminin, beta 1 (uterus, OVX monkeys): 1.1 fold
Fold change relative to OVX: Latent transforming growth factor beta binding protein 1 (uterus, OVX monkeys): 1.8 fold
Fold change relative to OVX: Matrix metalloproteinase 19 (uterus, OVX monkeys): 0.9 fold
Fold change relative to OVX: Mitogen-activated protein kinase kinase kinase kinase 4 (uterus, OVX monkeys): 0.8 fold
Fold change relative to OVX: Nidogen (enactin) (uterus, OVX monkeys): 2.4 fold
Fold change relative to OVX: Osteoglycin (osteoinductive factor, mimecan) (uterus, OVX monkeys): 1.6 fold
Fold change relative to OVX: Peroxiredoxin 1 (uterus, OVX monkeys): 1.0 fold
Fold change relative to OVX: Phosphatase and tensin homolog (mutated in multiple advanced cancers 1) (uterus, OVX monkeys): 1.1 fold
Fold change relative to OVX: Phospholipid transfer protein (uterus, OVX monkeys): 1.2 fold
Fold change relative to OVX: Pituitary tumour-transforming 1 interacting protein (uterus, OVX monkeys): 1.5 fold
Fold change relative to OVX: Procollagen C-endopeptidase enhancer (uterus, OVX monkeys): 1.7 fold
Fold change relative to OVX: Procollagen-proline, 2-oxoglutarate 4-dioxygenase (proline 4-hydroxylase), alpha polypeptide II (uterus, OVX monkeys): 1.2 fold
Fold change relative to OVX: Progesterone receptor (uterus, OVX monkeys): 1.9 fold
Fold change relative to OVX: Protein tyrosine kinase 9 (uterus, OVX monkeys): 1.2 fold
Fold change relative to OVX: SET domain, bifurcated 1 (uterus, OVX monkeys): 1.1 fold
Fold change relative to OVX: SPARC-like 1 (mast9, hevin) (uterus, OVX monkeys): 1.7 fold
Fold change relative to OVX: Secreted frizzled-related protein 1 (uterus, OVX monkeys): 1.6 fold
Fold change relative to OVX: Secreted frizzled-related protein 4 (uterus, OVX monkeys): 0.8 fold
Fold change relative to OVX: Secreted protein, acidic, cysteine-rich (osteonectin) (uterus, OVX monkeys): 1.7 fold
Fold change relative to OVX: Serine (or cysteine) proteinase inhibitor, clade H (heat shock protein 47), member 1, (collagen binding protein 1) (uterus, OVX monkeys): 1.4 fold
Fold change relative to OVX: Solute carrier family 22 (organic cation transporter), member 1-like (uterus, OVX monkeys): 1.0 fold
Fold change relative to OVX: Solute carrier family 25 (mitochondrial carrier; adenine nucleotide translocator), member 5 (uterus, OVX monkeys): 1.1 fold
Fold change relative to OVX: Stem cell growth factor; lymphocyte secreted C-type lectin (uterus, OVX monkeys): 1.2 fold
Fold change relative to OVX: Tenascin C (hexabrachion) (uterus, OVX monkeys): 1.0 fold
Fold change relative to OVX: Testis Enhanced Gene Transcript (Bax Inhibitor 1) (uterus, OVX monkeys): 1.1 fold
Fold change relative to OVX: Thioredoxin interacting protein (uterus, OVX monkeys): 1.0 fold
Fold change relative to OVX: Transforming growth factor, beta-induced, 68 kda (uterus, OVX monkeys): 1.7 fold
Fold change relative to OVX: Ubiquinol-cytochrome c reductase, Rieske iron-sulfur polypeptide 1 (uterus, OVX monkeys): 1.0 fold
Fold change relative to OVX: Wingless-type MMTV integration site family, member 2B (uterus, OVX monkeys): 1.4 fold
Fold change relative to OVX: Wingless-type MMTV integration site family, member 16 (uterus, OVX monkeys): 0.9 fold
Fold change relative to SHAM control: ATPase, H+ transporting, lysosomal 38 kda, V0 subunit d isoform 1 (uterus, OVX monkeys): 1.0 fold
Fold change relative to SHAM control: ATPase, Na+/K+ transporting, beta 3 polypeptide (uterus, OVX monkeys): 0.5 fold
Fold change relative to SHAM control: Biglycan (uterus, OVX monkeys): 0.9 fold
Fold change relative to SHAM control: CDC28 protein kinase regulatory subunit 2 (uterus, OVX monkeys): 0.5 fold
Fold change relative to SHAM control: Chitinase 3-like 1 (cartilage glycoprotein-39) (uterus, OVX monkeys): 0.8 fold
Fold change relative to SHAM control: Chloride intracellular channel 4 (uterus, OVX monkeys): 0.7 fold
Fold change relative to SHAM control: Chondroitin sulfate proteoglycan 2 (versican) (uterus, OVX monkeys): 1.0 fold
Fold change relative to SHAM control: Collagen, type I, alpha 1 (uterus, OVX monkeys): 0.7 fold
Fold change relative to SHAM control: Collagen, type IV, alpha 2 (uterus, OVX monkeys): 0.8 fold
Fold change relative to SHAM control: Collagen, type V, alpha 1 (uterus, OVX monkeys): 0.6 fold
Fold change relative to SHAM control: Collagen, type VI, alpha 3 (uterus, OVX monkeys): 0.7 fold
Fold change relative to SHAM control: Collagen, type VIII, alpha 2 (uterus, OVX monkeys): 1.1 fold
Fold change relative to SHAM control: Cyclin D1 (PRAD1: parathyroid adenomatosis 1) (uterus, OVX monkeys): 1.3 fold
Fold change relative to SHAM control: Cysteine-rich, angiogenic inducer, 61 (uterus, OVX monkeys): 0.9 fold
Fold change relative to SHAM control: Cytochrome c oxidase subunit via polypeptide 1 (uterus, OVX monkeys): 0.8 fold
Fold change relative to SHAM control: Cytochrome c oxidase subunit viia polypeptide 2 (liver) (uterus, OVX monkeys): 1.1 fold
Fold change relative to SHAM control: Dermatopontin (uterus, OVX monkeys): 0.8 fold
Fold change relative to SHAM control: Fibroblast growth factor 2 (basic) (uterus, OVX monkeys): 1.0 fold
